Source: patent publication US11708348B2, “Protease inhibitors for treatment of coronavirus infections” (The Scripps Research Institute, priority 2021, dated 2023)
Read-outs that look alike come from different tables or passages of the source.

System: SARS-CoV-2 strain USA-WA1/2020
Assay: microbe, parasite or virus in culture
Assay type: cell-based
Conditions: Severe acute respiratory syndrome coronavirus 2, HeLa-ACE2, 24 h, read-out: EC50, uM (Hela)
[1] = HeLa-ACE2 cells, SARS-CoV-2 infection, 24 h

| SMILES | EC50 [1] [µM] | further results |
| --- | --- | --- |
| O=C(Cc1ccccc1)O[C@@H](C(=O)N1C[C@@H]2CCC[C@@H]2[C@H]1C(=O)N[C@@H](C[C@@H]1CCNC1=O)C(=O)COC(F)(F)F)c1ccccc1F [Compound 622, (R)-1-(2-fluorophenyl)-2-oxo-2-((1S,3aR,6aS)-1-(((S)-3-oxo-1-((S)-2-oxopyrrolidin-3-yl)-4-(trifluoromethoxy)butan-2-yl)carbamoyl)hexahydrocyclopenta[c]-pyrrol-2(1H)-yl)ethyl 2-phenylacetate] | – | EC50: 0.05 to 0.2 µM |
| CC(C)CC(F)(F)C(=O)N1CC2(CC2)C[C@H]1C(=O)N[C@@H](C[C@@H]1CCNC1=O)C(=O)COC(F)(F)F [Compound 623, (S)-5-(2,2-difluoro-4-methylpentanoyl)-N-((S)-3-oxo-1-((S)-2-oxopyrrolidin-3-yl)-4-(trifluoromethoxy)butan-2-yl)-5-azaspiro[2.4]heptane-6-carboxamide] | < 0.05 | – |
| CC(C)(F)CCC(=O)N1CC2(CC2)C[C@H]1C(=O)N[C@@H](C[C@@H]1CCNC1=O)C(=O)COC(F)(F)F [Compound 624, (S)-5-(4-fluoro-4-methylpentanoyl)-N-((S)-3-oxo-1-((S)-2-oxopyrrolidin-3-yl)-4-(trifluoromethoxy)butan-2-yl)-5-azaspiro[2.4]heptane-6-carboxamide] | 0.05 to 0.2 | – |
| CC(C)CC(C)(C)C(=O)N1CC2(CC2)C[C@H]1C(=O)N[C@@H](C[C@@H]1CCNC1=O)C(=O)COC(F)(F)F [Compound 625, (S)-N-((S)-3-oxo-1-((S)-2-oxopyrrolidin-3-yl)-4-(trifluoromethoxy)butan-2-yl)-5-(2,2,4-trimethylpentanoyl)-5-azaspiro[2.4]heptane-6-carboxamide] | < 0.05 | – |
| CCC(=O)O[C@H](CC(C)C)C(=O)N1CC2(CC2)C[C@H]1C(=O)N[C@@H](C[C@@H]1CCNC1=O)C(=O)COC(F)(F)F [Compound 626, (R)-4-methyl-1-oxo-1-((S)-6-(((S)-3-oxo-l-((S)-2-oxopyrrolidin-3-yl)-4-(trifluoromethoxy)butan-2-yl)carbamoyl)-5-azaspiro[2.4]heptan-5-yl)pentan-2-yl propionate] | < 0.05 | – |
| O=C1NCC[C@H]1C[C@H](NC(=O)[C@@H]1CC2(CC2)CN1C(=O)C12CC(F)(C1)C2)C(=O)COC(F)(F)F [Compound 627, (S)-5-(3-fluorobicyclo[1.1.1]pentane-1-carbonyl)-N-((S)-3-oxo-1-((S)-2-oxopyrrolidin-3-yl)-4-(trifluoromethoxy)butan-2-yl)-5-azaspiro[2.4]heptane-6-carboxamide] | 0.05 to 0.2 | – |
| C[C@H](C(=O)N1CC2(CC2)C[C@H]1C(=O)N[C@@H](C[C@@H]1CCNC1=O)C(=O)COC(F)(F)F)c1ccccc1 [Compound 628, (S)-N-((S)-3-oxo-1-((S)-2-oxopyrrolidin-3-yl)-4-(trifluoromethoxy)butan-2-yl)-5-((S)-2-phenylpropanoyl)-5-azaspiro[2.4]heptane-6-carboxamide] | 0.05 to 0.2 | – |
| C[C@H](C(=O)N1C[C@H]2[C@@H]([C@H]1C(=O)N[C@@H](C[C@@H]1CCNC1=O)C(=O)COC(F)(F)F)C2(C)C)c1ccccc1 [Compound 629, (1R,2S,5S)-6,6-dimethyl-N-((S)-3-oxo-1-((S)-2-oxopyrrolidin-3-yl)-4-(trifluoromethoxy)butan-2-yl)-3-((S)-2-phenylpropanoyl)-3-azabicyclo[3.1.0]hexane-2-carboxamide] | < 0.05 | – |
| CC1(C)[C@@H]2[C@@H](C(=O)N[C@@H](C[C@@H]3CCNC3=O)C(=O)COC(F)(F)F)N(C(=O)C3(O)CCC(F)(F)CC3)C[C@@H]21 [Compound 630, (1R,2S,5S)-3-(4,4-difluoro-1-hydroxycyclohexane-1-carbonyl)-6,6-dimethyl-N-((S)-3-oxo-1-((S)-2-oxopyrrolidin-3-yl)-4-(trifluoromethoxy)butan-2-yl)-3-azabicyclo[3.1.0]hexane-2-carboxamide] | 0.05 to 0.2 | – |
| CC(C)C[C@@H](OC(=O)C(C)C)C(=O)N1CC2(CC2)C[C@H]1C(=O)N[C@@H](C[C@@H]1CCNC1=O)C(=O)COC(F)(F)F [Compound 631, (R)-4-methyl-1-oxo-1-((S)-6-(((S)-3-oxo-l-((S)-2-oxopyrrolidin-3-yl)-4-(trifluoromethoxy)butan-2-yl)carbamoyl)-5-azaspiro[2.4]heptan-5-yl)pentan-2-yl isobutyrate] | 0.2 to 0.5 | – |
| CC(C)C[C@@H](OC(=O)Cc1ccccc1)C(=O)N1CC2(CC2)C[C@H]1C(=O)N[C@@H](C[C@@H]1CCNC1=O)C(=O)COC(F)(F)F [Compound 632, (R)-4-methyl-1-oxo-1-((S)-6-(((S)-3-oxo-l-((S)-2-oxopyrrolidin-3-yl)-4-(trifluoromethoxy)butan-2-yl)carbamoyl)-5-azaspiro[2.4]heptan-5-yl)pentan-2-yl 2-phenylacetate] | – | EC50: < 0.05 µM |
| CC1(C)CCC(O)(C(=O)N2CC3(CC3)C[C@H]2C(=O)N[C@@H](C[C@@H]2CCNC2=O)C(=O)COC(F)(F)F)CC1 [Compound 633, (S)-5-(l-hydroxy-4,4-dimethylcyclohexane-1-carbonyl)-N-((S)-3-oxo-1-((S)-2-oxopyrrolidin-3-yl)-4-(trifluoromethoxy)butan-2-yl)-5-azaspiro[2.4]heptane-6-carboxamide] | < 0.05 | – |
| CC(C)(C)[C@H](NC(=O)NC1CC1)C(=O)N1C[C@H]2[C@@H]([C@H]1C(=O)N[C@@H](C[C@@H]1CCNC1=O)C(=O)COC(F)(F)F)C2(C)C [Compound 634, (1R,2S,5S)-3-((S)-2-(3-cyclopropylureido)-3,3-dimethylbutanoyl)-6,6-dimethyl-N-((S)-3-oxo-1-((S)-2-oxopyrrolidin-3-yl)-4-(trifluoromethoxy)butan-2-yl)-3-azabicyclo[3.1.0]hexane-2-carboxamide] | – | EC50 (HeLa-ACE2 cells, SARS-CoV-2 infection, 24 h, given as a bound, not a class symbol): > 1 µM |
| O=C1NCC[C@H]1C[C@H](NC(=O)[C@@H]1CC2(CC2)CN1C(=O)C(F)F)C(=O)COC(F)(F)F [Compound 635, (S)-5-(2,2-difluoroacetyl)-N-((S)-3-oxo-1-((S)-2-oxopyrrolidin-3-yl)-4-(trifluoromethoxy)butan-2-yl)-5-azaspiro[2.4]heptane-6-carboxamide] | – | EC50: 0.05 to 0.2 µM |
| CC(C)C[C@@H](O)C(=O)N1CCCC[C@H]1C(=O)N[C@@H](C[C@@H]1CCNC1=O)C(=O)COC(F)(F)F [Compound 636, (S)-1-((R)-2-hydroxy-4-methylpentanoyl)-N-((S)-3-oxo-1-((S)-2-oxopyrrolidin-3-yl)-4-(trifluoromethoxy)butan-2-yl)piperidine-2-carboxamide] | 0.05 to 0.2 | – |
| CC(C)C[C@@H](O)C(=O)N1CC[C@@H](C(C)(C)C)C[C@H]1C(=O)N[C@@H](C[C@@H]1CCNC1=O)C(=O)COC(F)(F)F [Compound 637, (2S,4R)-4-(tert-butyl)-1-((R)-2-hydroxy-4-methylpentanoyl)-N-((S)-3-oxo-1-((S)-2-oxopyrrolidin-3-yl)-4-(trifluoromethoxy)butan-2-yl)piperidine-2-carboxamide] | < 0.05 | – |
| CC(C)C[C@@H](O)C(=O)N1C[C@H]2CC[C@H](C2)[C@H]1C(=O)N[C@@H](C[C@@H]1CCNC1=O)C(=O)COC(F)(F)F [Compound 638, (1R,2S,5S)-3-((R)-2-hydroxy-4-methylpentanoyl)-N-((S)-3-oxo-1-((S)-2-oxopyrrolidin-3-yl)-4-(trifluoromethoxy)butan-2-yl)-3-azabicyclo[3.2.1]octane-2-carboxamide] | 0.05 to 0.2 | – |
| CC(C)C[C@@H](O)C(=O)N1CCCCC[C@H]1C(=O)N[C@@H](C[C@@H]1CCNC1=O)C(=O)COC(F)(F)F [Compound 639, (S)-1-((R)-2-hydroxy-4-methylpentanoyl)-N-((S)-3-oxo-1-((S)-2-oxopyrrolidin-3-yl)-4-(trifluoromethoxy)butan-2-yl)azepane-2-carboxamide] | < 0.05 | – |
| CC(C)C[C@@H](O)C(=O)N1CCC2(CC2)C[C@H]1C(=O)N[C@@H](C[C@@H]1CCNC1=O)C(=O)COC(F)(F)F [Compound 640, (S)-6-((R)-2-hydroxy-4-methylpentanoyl)-N-((S)-3-oxo-1-((S)-2-oxopyrrolidin-3-yl)-4-(trifluoromethoxy)butan-2-yl)-6-azaspiro[2.5]octane-5-carboxamide] | 0.05 to 0.2 | – |
| CC(C)C[C@@H](O)C(=O)N1CCC(C)(C)C[C@H]1C(=O)N[C@@H](C[C@@H]1CCNC1=O)C(=O)COC(F)(F)F [Compound 641, (S)-1-((R)-2-hydroxy-4-methylpentanoyl)-4,4-dimethyl-N-((S)-3-oxo-1-((S)-2-oxopyrrolidin-3-yl)-4-(trifluoromethoxy)butan-2-yl)piperidine-2-carboxamide] | < 0.05 | – |
| CC(C)C[C@@H](O)C(=O)N1C2CCC(CC2)[C@H]1C(=O)N[C@@H](C[C@@H]1CCNC1=O)C(=O)COC(F)(F)F [Compound 642, (S)-2-((R)-2-hydroxy-4-methylpentanoyl)-N-((S)-3-oxo-1-((S)-2-oxopyrrolidin-3-yl)-4-(trifluoromethoxy)butan-2-yl)-2-azabicyclo[2.2.2]octane-3-carboxamide] | < 0.05 | – |
| CC(C)C[C@@H](NC(=O)OC(C)(C)C)C(=O)N1CC2(CC2)C[C@H]1C(=O)N[C@@H](C[C@@H]1CCNC1=O)C(=O)COC(F)(F)F [Compound 643, tert-butyl ((R)-4-methyl-1-oxo-1-((S)-6-(((S)-3-oxo-1-((S)-2-oxopyrrolidin-3-yl)-4-(trifluoromethoxy)butan-2-yl)carbamoyl)-5-azaspiro[2.4]heptan-5-yl)pentan-2-yl)carbamate] | < 0.05 | – |
| CC(C)C[C@@H](N)C(=O)N1CC2(CC2)C[C@H]1C(=O)N[C@@H](C[C@@H]1CCNC1=O)C(=O)COC(F)(F)F [Compound 644, (S)-5-(D-leucyl)-N-((S)-3-oxo-1-((S)-2-oxopyrrolidin-3-yl)-4-(trifluoromethoxy)butan-2-yl)-5-azaspiro[2.4]heptane-6-carboxamide] | 0.2 to 0.5 | – |
